Assays:
CTLL-2 cells = assay type: cell-based
[1] = target: STING deletion mutant DN5 (162-N) (Homo sapiens, UniProt Q86WV6); assay type: binding
Sequence of STING deletion mutant DN5 (162-N) (Q86WV6 162-379, stated change not applied): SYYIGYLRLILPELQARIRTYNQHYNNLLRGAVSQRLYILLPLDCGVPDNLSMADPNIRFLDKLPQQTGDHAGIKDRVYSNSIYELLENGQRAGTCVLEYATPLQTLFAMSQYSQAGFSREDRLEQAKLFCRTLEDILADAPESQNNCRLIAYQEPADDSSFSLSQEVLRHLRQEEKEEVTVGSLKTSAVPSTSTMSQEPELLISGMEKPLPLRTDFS

GLFGAIAGFIENGWEGCGGEKEKEK [IN F#2 dimer]
proliferation of CTLL-2 cells (CTLL-2 cells): inhibits the proliferation of CTLL-2 cells | pulldown of STING deletion mutant DN5 (162-N) by biotinylated peptide [1]: readily pulled down
